Columns and labels:
Assay type in all cases: cell-based, human
NCI/ADR-RES = test system: NCI/ADR-RES
Summary of the method: (§1)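 TGI-based COMPARE analysis set the response profiles against historical NCI-60 data for established antitubulin compounds, after testing at five log-spaced doses (0.01–100 μM) in the 60-line screen.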

K-562 = test system: K-562
Summary of the method: as §1

U251 = test system: U251
Summary of the method: as §1

CCRF-CEM = test system: CCRF-CEM
Summary of the method: (§2)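 Concentrations tested in the NCI-60 panel were 0.01, 0.1, 1, 10 and 100 μM. The endpoint taken forward was TGI, whose pattern across lines was run through COMPARE alongside earlier tubulin inhibitors.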

MDA-MB-231/ATCC = test system: MDA-MB-231/ATCC
Summary of the method: as §1

NCI 60 cell lines = test system: NCI 60 cell lines
Summary of the method: as §1

RXF 393 = test system: RXF 393
Summary of the method: as §1

HL-60(TB) = test system: HL-60(TB)
Summary of the method: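 First, compounds went into the NCI-60 cell panel. Next, they were dosed at 0.01, 0.1, 1, 10 and 100 μM. Finally, TGI levels fed a COMPARE analysis against prior tubulin-inhibitor data.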

RPMI-8226 = test system: RPMI-8226
Summary of the method: as §1

UO-31 = test system: UO-31
Summary of the method: as §1

SK-OV-3 = test system: SK-OV-3
Summary of the method: as §1

MDA-MB-468 = test system: MDA-MB-468
Summary of the method: as §1

ACHN = test system: ACHN
Summary of the method: as §2

SK-MEL-5 = test system: SK-MEL-5
Summary of the method: as §1

TK-10 = test system: TK-10
Summary of the method: as §2

OVCAR-8 = test system: OVCAR-8
Summary of the method: as §1

HCT-116 = test system: HCT-116
Summary of the method: as §1

T-47D = test system: T-47D
Summary of the method: as §1

SK-MEL-2 = test system: SK-MEL-2
Summary of the method: as §1

UACC-257 = test system: UACC-257
Summary of the method: as §1

MCF7 = test system: MCF7
Summary of the method: as §1

NCI-H522 = test system: NCI-H522
Summary of the method: as §1

PC-3 = test system: PC-3
Summary of the method: as §2

SF-295 = test system: SF-295
Summary of the method: as §1

HT29 = test system: HT29
Summary of the method: as §1

MOLT-4 = test system: MOLT-4
Summary of the method: as §1

COc1cc(C)c(-c2ccc(=O)c(OC)cc2C)c(OC)c1OC (single isomer, unassigned) [(aR)-iso-6]
not cytotoxic: cytotoxicity at the highest concentration tested (NCI 60 cell lines; 100 μM)
> -4.00 Molar: Log10GI50 (NCI/ADR-RES) | Log10LC50 (NCI/ADR-RES) | Log10TGI (NCI/ADR-RES) | Log10GI50 (K-562) | Log10LC50 (K-562) | Log10TGI (K-562) | Log10GI50 (U251) | Log10LC50 (U251) | Log10TGI (U251) | Log10GI50 (CCRF-CEM) | Log10LC50 (CCRF-CEM) | Log10TGI (CCRF-CEM) | Log10GI50 (MDA-MB-231/ATCC) | Log10LC50 (MDA-MB-231/ATCC) | Log10TGI (MDA-MB-231/ATCC) | Log10GI50 (RXF 393) | Log10LC50 (RXF 393) | Log10TGI (RXF 393) | Log10GI50 (HL-60(TB)) | Log10LC50 (HL-60(TB)) | Log10TGI (HL-60(TB)) | Log10GI50 (RPMI-8226) | Log10LC50 (RPMI-8226) | Log10TGI (RPMI-8226) | Log10GI50 (UO-31) | Log10LC50 (UO-31) | Log10TGI (UO-31) | Log10GI50 (SK-OV-3) | Log10LC50 (SK-OV-3) | Log10TGI (SK-OV-3) | Log10GI50 (MDA-MB-468) | Log10LC50 (MDA-MB-468) | Log10TGI (MDA-MB-468) | Log10GI50 (ACHN) | Log10LC50 (ACHN) | Log10TGI (ACHN) | Log10GI50 (SK-MEL-5) | Log10LC50 (SK-MEL-5) | Log10TGI (SK-MEL-5) | Log10GI50 (TK-10) | Log10LC50 (TK-10) | Log10TGI (TK-10) | Log10GI50 (OVCAR-8) | Log10LC50 (OVCAR-8) | Log10TGI (OVCAR-8) | Log10GI50 (HCT-116) | Log10LC50 (HCT-116) | Log10TGI (HCT-116) | Log10GI50 (T-47D) | Log10LC50 (T-47D) | Log10TGI (T-47D) | Log10GI50 (SK-MEL-2) | Log10LC50 (SK-MEL-2) | Log10TGI (SK-MEL-2) | Log10GI50 (UACC-257) | Log10LC50 (UACC-257) | Log10TGI (UACC-257) | Log10GI50 (MCF7) | Log10LC50 (MCF7) | Log10TGI (MCF7) | Log10GI50 (NCI-H522) | Log10LC50 (NCI-H522) | Log10TGI (NCI-H522) | Log10GI50 (PC-3) | Log10LC50 (PC-3) | Log10TGI (PC-3) | Log10GI50 (SF-295) | Log10LC50 (SF-295) | Log10TGI (SF-295) | Log10GI50 (HT29) | Log10LC50 (HT29) | Log10TGI (HT29) | Log10GI50 (MOLT-4) | Log10LC50 (MOLT-4) | Log10TGI (MOLT-4)
-4.01 Molar: _MID Log10GI50 (NCI 60 cell lines; mean graph midpoint)
0: Log10 Range at TGI (NCI 60 cell lines; NCI-60 cell line selectivity) | Delta Log10LC50 (NCI 60 cell lines; mean graph) | Delta Log10TGI (NCI 60 cell lines; mean graph)
> 100 µM: GI50 (NCI 60 cell lines; NCI-60 mean) | Mean TGI (NCI 60 cell lines; NCI-60 mean total growth inhibition)
-4.0 Molar: _MID Log10LC50 (NCI 60 cell lines; mean graph midpoint) | _MID Log10TGI (NCI 60 cell lines; mean graph midpoint)
